From patent US8772293B2, “Chemical compounds” (Pfizer Limited, priority 2010, dated 2014)
Where a name gives a salt, the structure may show the parent alone.

Biological target: T1, Nav1.7 (or SCN9A) channel (Homo sapiens, UniProt Q15858)
T1 construct: expressed in transfected cells
Assay: Nav1.7 (hSCN9A) PatchXpress electrophysiology in HEK cells
Type: cell-based
Conditions: PatchXpress platform; HEK cells stably expressing hSCN9A; held at V1/2 of inactivation; calculated from single point % inhibition; read-out: Nav1.7 EIC50 (estimated IC-50)
Description: The ability of the compounds of formula (I) to block the Nav1.7 (or SCN9A) channel were measured using the assay described below.
Human Embryonic Kidney (HEK) cells were transfected with an hSCN9A construct using lipofectamine reagent (Invitrogen), using standard techniques. Cells stably expressing the hSCN9A constructs were identified by their resistance to G-418 (400 μg/ml). Clones were screened for expression using the whole-cell voltage-clamp technique.
HEK cells stably transfected with hSCN9A were maintained in DMEM medium supplemented with 10% heat-inactivated fetal bovine serum and 400 µg/ml G-418 in an incubator at 37° C. with a humidified atmosphere of 10% CO2. For HTS, cells were harvested from flasks by trypsinization and replated in an appropriate multi-well plate (typically 96 or 384 wells/plate) such that confluence would be achieved within 24 hours of plating. For electrophysiological studies, cells were removed from the culture flask by brief trypsinization and re-plated at low density onto glass cover slips. Cells were typically used for electrophysiological experiments within 24 to 72 hours after plating.
Cover slips containing HEK cells expressing hSCN9A were placed in a bath on the stage of an inverted microscope and perfused (approximately 1 ml/minutes) with extracellular solution of the following composition: 138 mM NaCl, 2 mM CaCl2, 5.4 mM KCl, 1 mM MgCl2, 10 mM glucose, and 10 mM HEPES, pH 7.4, with NaOH. […] The osmolarity of the extracellular and intracellular solutions was 300 mOsm/kg and 295 mOsm/kg, respectively. All recordings were made at room temperature (22-24° C.) using AXOPATCH 200B amplifiers and PCLAMP software (Axon Instruments, Burlingame, Calif.).
hSCN9A currents in HEK cells were measured using the whole-cell configuration of the patch-clamp technique (Hamill et al., 1981). Uncompensated series resistance was typically 2 to 5 mega ohms and >85% series resistance compensation was routinely achieved. As a result, voltage errors were negligible and no correction was applied. Current records were acquired at 20 to 50 KHz and filtered at 5 to 10 KHz.
HEK cells stably transfected with hSCN9A were viewed under Hoffman contrast optics and placed in front of an array of flow pipes emitting either control or compound-containing extracellular solutions. All compounds were dissolved in dimethyl sulfoxide to make 10 mM stock solutions, which were then diluted into extracellular solution to attain the final concentrations desired. […] The voltage-dependence of inactivation was determined by applying a series of depolarizing prepulses (8 sec long in 10 mV increments) from a negative holding potential. The voltage was then immediately stepped to 0 mV to assess the magnitude of the sodium current. Currents elicited at 0 mV were plotted as a function of prepulse potential to allow estimation of the voltage at which 50% of the channels were inactivated (midpoint of inactivation or V1/2). Compounds were tested for their ability to inhibit hSCN9A sodium channels by activating the channel with a 20 msec voltage step to 0 mV following an 8 second conditioning prepulse to the empirically determined V1/2. Compound effect (% inhibition) was determined by difference in current amplitude before and after application of test compounds. For ease of comparison, “estimated IC-50” (EIC50) values were calculated from single point electrophysiology data by the following equation, (tested concentration, uM)×(100-% inhibition/% inhibition). Inhibition values <20% and >80% were excluded from the calculation.
Electrophysiological assays were conducted with PatchXpress 7000 hardware and associated software (Molecular Devices Corp). All assay buffers and solutions were identical to those used in conventional whole-cell voltage clamp experiments described above. hSCN9A cells were grown as above to 50%-80% confluency and harvested by trypsinization. […]

T1 sequence (Q15858 whole entry): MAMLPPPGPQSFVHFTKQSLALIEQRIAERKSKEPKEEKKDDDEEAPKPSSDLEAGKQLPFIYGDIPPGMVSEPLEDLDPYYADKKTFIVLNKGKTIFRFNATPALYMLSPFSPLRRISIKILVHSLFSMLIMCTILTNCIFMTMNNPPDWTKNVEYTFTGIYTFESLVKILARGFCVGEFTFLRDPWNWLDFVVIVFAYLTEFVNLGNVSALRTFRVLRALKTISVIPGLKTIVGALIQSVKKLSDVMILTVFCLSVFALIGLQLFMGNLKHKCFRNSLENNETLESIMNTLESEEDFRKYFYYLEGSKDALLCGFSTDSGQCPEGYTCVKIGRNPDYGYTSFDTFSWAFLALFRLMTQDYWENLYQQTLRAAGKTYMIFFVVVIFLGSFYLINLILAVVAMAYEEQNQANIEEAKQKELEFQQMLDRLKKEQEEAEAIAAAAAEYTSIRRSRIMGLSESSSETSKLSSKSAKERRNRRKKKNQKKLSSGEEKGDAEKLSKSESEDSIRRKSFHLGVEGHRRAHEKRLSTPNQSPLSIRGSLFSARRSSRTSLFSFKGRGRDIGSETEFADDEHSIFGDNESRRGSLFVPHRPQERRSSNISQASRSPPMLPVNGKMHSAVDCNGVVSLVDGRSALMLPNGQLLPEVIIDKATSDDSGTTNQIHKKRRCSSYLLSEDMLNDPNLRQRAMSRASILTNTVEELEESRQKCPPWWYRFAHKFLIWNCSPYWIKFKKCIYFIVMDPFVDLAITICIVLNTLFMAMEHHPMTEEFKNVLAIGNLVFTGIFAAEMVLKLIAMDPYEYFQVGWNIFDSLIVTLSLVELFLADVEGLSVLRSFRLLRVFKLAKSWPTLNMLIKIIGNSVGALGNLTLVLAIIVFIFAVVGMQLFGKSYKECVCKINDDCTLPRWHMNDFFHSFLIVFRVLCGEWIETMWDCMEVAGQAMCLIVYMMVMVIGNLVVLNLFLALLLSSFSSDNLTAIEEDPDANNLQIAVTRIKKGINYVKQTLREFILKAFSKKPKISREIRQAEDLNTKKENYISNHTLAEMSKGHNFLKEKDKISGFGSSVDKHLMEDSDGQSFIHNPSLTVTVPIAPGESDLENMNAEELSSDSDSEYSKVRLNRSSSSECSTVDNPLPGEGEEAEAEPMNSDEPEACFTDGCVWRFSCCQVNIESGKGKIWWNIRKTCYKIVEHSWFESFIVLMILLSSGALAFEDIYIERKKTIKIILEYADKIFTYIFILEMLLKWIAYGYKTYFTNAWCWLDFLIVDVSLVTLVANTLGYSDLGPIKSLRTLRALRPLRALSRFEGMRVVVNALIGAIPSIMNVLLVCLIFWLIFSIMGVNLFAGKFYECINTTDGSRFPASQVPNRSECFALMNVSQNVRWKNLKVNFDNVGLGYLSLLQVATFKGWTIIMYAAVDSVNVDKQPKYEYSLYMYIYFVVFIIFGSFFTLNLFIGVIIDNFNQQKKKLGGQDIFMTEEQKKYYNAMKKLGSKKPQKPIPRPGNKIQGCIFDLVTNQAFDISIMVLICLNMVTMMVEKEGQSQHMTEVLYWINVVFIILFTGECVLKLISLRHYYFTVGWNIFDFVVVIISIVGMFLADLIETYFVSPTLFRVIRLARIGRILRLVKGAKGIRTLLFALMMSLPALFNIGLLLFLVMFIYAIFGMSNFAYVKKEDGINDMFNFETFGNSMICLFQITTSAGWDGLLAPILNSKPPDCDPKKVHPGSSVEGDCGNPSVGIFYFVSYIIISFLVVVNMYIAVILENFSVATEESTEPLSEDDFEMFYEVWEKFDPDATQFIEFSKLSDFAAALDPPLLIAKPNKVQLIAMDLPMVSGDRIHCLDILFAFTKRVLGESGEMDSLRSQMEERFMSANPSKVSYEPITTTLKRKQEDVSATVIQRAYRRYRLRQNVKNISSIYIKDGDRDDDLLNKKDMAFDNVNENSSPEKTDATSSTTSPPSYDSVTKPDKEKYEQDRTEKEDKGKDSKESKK

Row | Structure (SMILES) | IC50 [nM]
1 | O=S(=O)(Nc1nncs1)c1cc(Cl)c(Oc2cc(Cl)c(-c3cccc(F)c3)cc2-c2ccnnc2)cc1F [Example 26, 5-Chloro-4-{[2-chloro-3′-fluoro-5-(pyridazin-4-yl)biphenyl-4-yl]oxy}-2-fluoro-N-(1,3,4-thiadiazol-2-yl)benzenesulfonamide] | 2.3
2 | O=S(=O)(Nc1nncs1)c1cc(Cl)c(Oc2cc(Cl)c(-c3ccccc3F)cc2-c2ccnnc2)cc1F [Example 27, 5-Chloro-4-{[2-chloro-2′-fluoro-5-(pyridazin-4-yl)biphenyl-4-yl]oxy}-2-fluoro-N-(1,3,4-thiadiazol-2-yl)benzenesulfonamide] | 0.9
3 | O=S(=O)(Nc1nncs1)c1cc(Cl)c(Oc2cc(Cl)c(-c3cccc(C(F)(F)F)c3)cc2-c2ccnnc2)cc1F [Example 28, 5-Chloro-4-{[2-chloro-5-(pyridazin-4-yl)-3′-(trifluoromethyl)biphenyl-4-yl]oxy}-2-fluoro-N-(1,3,4-thiadiazol-2-yl)benzenesulfonamide] | 0.9
4 | O=S(=O)(Nc1nncs1)c1cc(Cl)c(Oc2ccc(-c3ccc(Cl)c(C(F)(F)F)c3)cc2-c2ccnnc2)cc1F [Example 29, 5-Chloro-4-{[4′-chloro-3-(pyridazin-4-yl)-3′-(trifluoromethyl)biphenyl-4-yl]oxy}-2-fluoro-N-(1,3,4-thiadiazol-2-yl)benzenesulfonamide] | 0.8
5 | O=S(=O)(Nc1nncs1)c1cc(Cl)c(Oc2ccc(-c3ccc(C(F)(F)F)nc3)cc2-c2ccnnc2)cc1F [Example 30, 5-Chloro-2-fluoro-4-{2-(pyridazin-4-yl)-4-[6-(trifluoromethyl)pyridin-3-yl]phenoxy}-N-(1,3,4-thiadiazol-2-yl)benzenesulfonamide] | 23
6 | O=S(=O)(Nc1nncs1)c1cc(Cl)c(Oc2ccc(-c3cccc(C(F)(F)F)n3)cc2-c2ccnnc2)cc1F [Example 31, 5-Chloro-2-fluoro-4-{2-(pyridazin-4-yl)-4-[6-(trifluoromethyl)pyridin-2-yl]phenoxy}-N-(1,3,4-thiadiazol-2-yl)benzenesulfonamide] | 16
7 | N#Cc1cccc(-c2ccc(Oc3cc(F)c(S(=O)(=O)Nc4nncs4)cc3Cl)c(-c3c[nH]nc3N)c2)c1 [Example 32, 4-{[3-(5-Amino-1H-pyrazol-4-yl)-3′-cyanobiphenyl-4-yl]oxy}-5-chloro-2-fluoro-N-(1,3,4-thiadiazol-2-yl)benzenesulfonamide] | 5.3
8 | O=S(=O)(Nc1nncs1)c1cc(Cl)c(Oc2ccc(-c3ccnc(C(F)(F)F)c3)cc2-c2ccnnc2)cc1F [Example 33] | 16
9 | O=S(=O)(Nc1nncs1)c1cc(Cl)c(Oc2ccc(-c3ccc(C(F)(F)F)cc3)cc2-c2ccnc(N3CCNCC3)c2)cc1F [Example 34, 5-Chloro-2-fluoro-4-({3-[2-(piperazin-1-yl)pyridin-4-yl]-4′-(trifluoromethyl)biphenyl-4-yl}oxy)-N-(1,3,4-thiadiazol-2-yl)benzenesulfonamide, hydrochloride] | 0.5
10 | O=S(=O)(Nc1ccncn1)c1cc(Cl)c(Oc2ccc(-c3ccc(C(F)(F)F)cc3)cc2-c2ccnc(N3CCNCC3)c2)cc1F [Example 35, 5-Chloro-2-fluoro-4-({3-[2-(piperazin-1-yl)pyridin-4-yl]-4′-(trifluoromethyl)biphenyl-4-yl}oxy)-N-(pyrimidin-4-yl)benzenesulfonamide hydrochloride salt] | 2.2
11 | O=S(=O)(Nc1nncs1)c1cc(Cl)c(Oc2cc(-c3cccc(F)c3)c(Cl)cc2-c2ccnnc2)cc1F [Example 36, 5-Chloro-4-[(6-chloro-3′-fluoro-4-pyridazin-4-ylbiphenyl-3-yl)oxy]-2-fluoro-N-1,3,4-thiadiazol-2-ylbenzenesulfonamide] | 11
12 | O=S(=O)(Nc1nncs1)c1cc(Cl)c(Oc2cc(-c3ccc(F)cc3)c(Cl)cc2-c2ccnnc2)cc1F [Example 37, 5-Chloro-4-[(6-chloro-4′-fluoro-4-pyridazin-4-ylbiphenyl-3-yl)oxy]-2-fluoro-N-1,3,4-thiadiazol-2-ylbenzenesulfonamide] | 12
13 | O=S(=O)(Nc1nncs1)c1cc(Cl)c(Oc2cc(-c3ccccc3F)c(Cl)cc2-c2ccnnc2)cc1F [Example 38, 5-Chloro-4-[(6-chloro-2′-fluoro-4-pyridazin-4-ylbiphenyl-3-yl)oxy]-2-fluoro-N-1,3,4-thiadiazol-2-ylbenzenesulfonamide] | 18
14 | N#Cc1cccc(-c2ccc(Oc3cc(F)c(S(=O)(=O)Nc4nncs4)cc3Cl)c(-c3ccnnc3)c2)c1 [Example 39, 5-chloro-4-[(3′-cyano-3-pyridazin-4-ylbiphenyl-4-yl)oxy]-2-fluoro-N-1,3,4-thiadiazol-2-ylbenzenesulfonamide] | 7.7
15 | O=S(=O)(Nc1ncccn1)c1cc(Cl)c(Oc2ccc(-c3ccc(C(F)(F)F)cc3)cc2-c2ccnc(N3CCNCC3)c2)cc1F [Example 40, 5-chloro-2-fluoro-4-{[3-(2-piperazin-1-ylpyridin-4-yl)-4′-(trifluoromethyl)biphenyl-4-yl]oxy}-N-pyrimidin-2-ylbenzenesulfonamide] | 1
